Test results from ChEMBL document CHEMBL1201862, “PubChem BioAssay data set” (2004).
Activity calls are given as the source filed them.

Experiments:
[1] = molecular target: NS3 (Hepatitis C virus, UniProt A3EZJ3); assay: PubChem AID 2173; set-up: species or system Hepacivirus hominis
[2] = HEK-293T viability loss after treatment – luminescence, T-cell screen hits, cytotoxicity control for TCR NF-kB inhibitor project, dose response (AID 489026); format: functional, cell-based;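 note: cells exposed to compound about 14 hours before the viability readout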
[3] = Luminescence Cell-Based Dose Confirmation HTS to Identify Inhibitors of Platelet Dense Granule Release. [Related pubchem assays: 1663 (Primary HTS), 1678 (Summary of Project)]; format: functional
[4] = molecular target: T1, Heat shock factor protein 1 (Mus musculus, UniProt P38532); assay: decrease of HSF1-responsive luciferase luminescence – cell-based, NIH3T3, dose retest, confirmation (AID 2382); format: functional;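 note: NIH3T3 fibroblasts with HSF1-driven luciferase reporter stressed by proteasome inhibitor MG132; luminescence from HSF1-driven luciferase expression after 8 hours of MG132 stress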
T1 sequence (P38532 whole entry): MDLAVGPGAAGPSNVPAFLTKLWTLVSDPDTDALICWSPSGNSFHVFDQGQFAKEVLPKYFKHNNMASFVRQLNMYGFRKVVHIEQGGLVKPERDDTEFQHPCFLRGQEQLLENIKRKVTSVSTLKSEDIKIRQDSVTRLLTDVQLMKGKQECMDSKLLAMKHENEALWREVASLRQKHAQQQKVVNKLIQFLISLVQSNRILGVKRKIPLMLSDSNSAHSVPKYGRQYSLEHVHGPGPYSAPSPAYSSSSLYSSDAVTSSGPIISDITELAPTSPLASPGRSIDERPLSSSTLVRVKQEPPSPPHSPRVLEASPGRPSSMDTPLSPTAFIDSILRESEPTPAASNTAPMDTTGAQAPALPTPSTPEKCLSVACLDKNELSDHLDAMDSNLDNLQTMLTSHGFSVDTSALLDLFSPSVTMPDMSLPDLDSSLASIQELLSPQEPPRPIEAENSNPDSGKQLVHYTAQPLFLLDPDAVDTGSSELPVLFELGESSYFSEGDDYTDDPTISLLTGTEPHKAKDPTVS

[5] = Luminescence-based counterscreen assay for KLF5 inhibitors: dose response cell-based high throughput screening assay to identify cytotoxic compounds using the IEC-6 intestinal epithelial cell line. [Related pubchem assays: 1700 (Primary screen.), 1834 (Confirmation screen.), 1858 (Summary AID.), 1905 (Counterscreen.)]; format: functional
[6] = molecular target: Luciferin 4-monooxygenase (Photinus pyralis, UniProt P08659); assay: inhibition of purified Photinus pyralis luciferase – biochemical, luminescence, dose response (AID 1891)
Chain of Luciferin 4-monooxygenase (P08659 whole entry): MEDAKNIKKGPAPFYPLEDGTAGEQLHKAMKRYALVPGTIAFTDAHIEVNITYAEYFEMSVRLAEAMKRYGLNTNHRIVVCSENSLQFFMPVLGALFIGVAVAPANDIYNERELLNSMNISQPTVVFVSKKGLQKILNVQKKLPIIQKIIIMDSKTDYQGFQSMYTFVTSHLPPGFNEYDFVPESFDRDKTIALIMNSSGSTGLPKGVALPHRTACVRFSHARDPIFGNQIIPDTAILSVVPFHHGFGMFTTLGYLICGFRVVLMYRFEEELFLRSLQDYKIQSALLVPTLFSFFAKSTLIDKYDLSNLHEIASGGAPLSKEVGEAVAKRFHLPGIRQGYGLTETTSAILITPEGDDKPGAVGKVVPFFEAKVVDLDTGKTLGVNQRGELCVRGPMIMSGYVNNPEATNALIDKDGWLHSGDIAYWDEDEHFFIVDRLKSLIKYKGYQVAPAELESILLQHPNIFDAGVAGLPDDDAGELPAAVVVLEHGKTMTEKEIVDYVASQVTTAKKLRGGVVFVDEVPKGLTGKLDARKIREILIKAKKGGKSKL

Chain of NS3 (A3EZJ3 whole entry): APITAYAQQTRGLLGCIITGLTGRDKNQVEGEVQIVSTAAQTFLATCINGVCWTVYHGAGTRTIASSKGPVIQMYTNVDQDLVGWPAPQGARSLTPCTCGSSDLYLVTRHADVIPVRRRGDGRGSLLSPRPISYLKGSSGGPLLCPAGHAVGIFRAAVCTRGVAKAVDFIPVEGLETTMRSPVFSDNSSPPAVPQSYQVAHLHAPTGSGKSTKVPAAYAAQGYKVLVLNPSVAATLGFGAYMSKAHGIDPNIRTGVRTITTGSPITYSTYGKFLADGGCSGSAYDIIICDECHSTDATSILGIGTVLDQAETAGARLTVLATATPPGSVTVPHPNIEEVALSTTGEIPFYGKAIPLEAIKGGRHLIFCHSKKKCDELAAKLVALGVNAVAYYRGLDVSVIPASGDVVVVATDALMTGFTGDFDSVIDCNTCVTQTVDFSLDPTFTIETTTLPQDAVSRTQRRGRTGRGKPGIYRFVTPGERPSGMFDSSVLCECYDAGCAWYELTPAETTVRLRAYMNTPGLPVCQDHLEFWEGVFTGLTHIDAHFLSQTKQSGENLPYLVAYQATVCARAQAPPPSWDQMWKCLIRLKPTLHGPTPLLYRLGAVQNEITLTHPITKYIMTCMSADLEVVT

SMILES | IC50 [1] | IC50 [2] | EC50 [3] | EC50 [4] | IC50 [5] | EC50 [6]
NS(=O)(=O)c1ccc2nc(NC(=O)c3ccc4ncsc4c3)sc2c1 | 32 µM (not active) | – | – | – | – | –
O=C(Nc1ccc(N2CCCCC2)cc1)c1ccccn1 | – | > 80 µM (inactive) | 1.49 µM (active) | < 0.16 µM (active) | 13.3 µM (not active) | 1.06 µM (active)
